We go through two compounds from ChEMBL document CHEMBL6078655, “Engineering of Novel Analogues That Are More Receptor-Selective and Potent than the Native Hormone, Insulin-like Peptide 5 (INSL5)” (J Med Chem, 2024).

The structures appear in SMILES notation. The source made the active and inactive calls. The rule behind the calls is not given here. Where a SMILES comes first, the peptide text is derived from it. Bridges are numbered along the chain shown (N, C = ends). Roman numbers before positions name the chains, in order. [ ]: non-standard residue; d: D form. 1Nal = N[C@@H](Cc1cccc2ccccc12)C(=O)O; Agb = N=C(N)NCC[C@H](N)C(=O)O

Assay [1] addresses T1, Relaxin-3 receptor 2 (Homo sapiens, UniProt Q8TDU9). As to the kind of experiment: Agonist activity at RXFP4 (unknown origin) expressed in CHO cells co-transfected with pCRE-galactosidase reporter plasmid assessed as inhibition of forskolin-induced cAMP accumulation incubated for 6 hrs by reporter gene assay. In kind it is functional, cell-based. (In general: Changes in cAMP serve as a functional read-out for many G protein-coupled receptors.)

Assay [2] has as its target T1, Relaxin-3 receptor 2. As to the kind of experiment: Binding affinity to LgBiT-tagged RXFP4 (unknown origin) expressed in HEK cells assessed as inhibition constant incubated for 1 hr by NanoBiT assay. In kind it is cell-based.

T1 sequence (Q8TDU9 whole entry): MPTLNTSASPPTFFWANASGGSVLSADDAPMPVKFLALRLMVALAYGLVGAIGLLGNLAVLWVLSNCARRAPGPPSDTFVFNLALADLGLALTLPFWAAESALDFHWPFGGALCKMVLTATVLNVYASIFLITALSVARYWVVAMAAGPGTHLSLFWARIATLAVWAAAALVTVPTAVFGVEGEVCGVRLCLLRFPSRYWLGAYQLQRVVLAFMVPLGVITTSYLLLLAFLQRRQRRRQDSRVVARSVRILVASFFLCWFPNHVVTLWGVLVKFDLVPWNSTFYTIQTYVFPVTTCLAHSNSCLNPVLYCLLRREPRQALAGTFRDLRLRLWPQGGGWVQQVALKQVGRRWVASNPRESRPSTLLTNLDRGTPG

As a reminder, the Ki is the equilibrium dissociation constant of an inhibitor or competing ligand from its target. For `CC[C@H](C)[C@@H]1NC(=O)[C@H](Cc2ccc(O)cc2)NC(=O)[C@H]([C@@H](C)CC)NC(=O)[C@H](C(C)C)NC(=O)[C@H]([C@@H](C)O)NC(=O)[C@H](CCCNC(=N)N)NC(=O)[C@H]([C@@H](C)CC)NC(=O)[C@H](Cc2ccc(O)cc2)NC(=O)[C@H](CCC(=O)O)NC(=O)[C@H](CC(C)C)NC(=O)CNC(=O)[C@@H](NC(=O)[C@H](CC(C)C)NC(=O)[C@H](CCCNC(=N)N)NC(=O)[C@@H](NC(=O)[C@H](CO)NC(=O)[C@H](CCC(=O)O)NC(=O)[C@@H](N)CCCCN)C(C)C)CSSC[C@H](N)C(=O)N[C@@H]([C@@H](C)O)C(=O)N[C@@H](CC(=O)O)C(=O)NCC(=O)N[C@@H](C)C(=O)N[C@@H](CO)C(=O)N[C@@H](CCSC)C(=O)N[C@@H](CCCCN)C(=O)N[C@@H](CC(=O)O)C(=O)N[C@@H](CC(C)C)C(=O)N[C@@H](CO)C(=O)N[C@@H](C)C(=O)N[C@@H](CC(C)C)C(=O)N[C@H](C(=O)O)CSSC[C@@H](C(=O)N[C@@H](C)C(=O)N[C@@H](CO)C(=O)N[C@@H](CO)C(=O)N[C@@H](CCNC(=N)N)C(=O)N[C@@H](Cc2c[nH]c3ccccc23)C(=O)O)NC1=O` (I: H-KESVRLCGLEYIRTVIYICASS[Agb]W-OH / II: H-CTDGASMKDLSALC-OH; disulfide I:7-II:1, I:19-II:14), the EC50 is > 100 µM on Relaxin-3 receptor 2 [1] (read-out: EC50) and > 10 µM at Relaxin-3 receptor 2 [1] (read-out: pEC50 (converted)). For the same compound, the Ki at Relaxin-3 receptor 2 [2] was determined as 0.0141 µM.
For the compound `CC[C@H](C)[C@@H]1NC(=O)[C@H](Cc2ccc(O)cc2)NC(=O)[C@H]([C@@H](C)CC)NC(=O)[C@H](C(C)C)NC(=O)[C@H]([C@@H](C)O)NC(=O)[C@H](CCCNC(=N)N)NC(=O)[C@H]([C@@H](C)CC)NC(=O)[C@H](Cc2ccc(O)cc2)NC(=O)[C@H](CCC(=O)O)NC(=O)[C@H](CC(C)C)NC(=O)CNC(=O)[C@@H](N)CSSC[C@H](N)C(=O)N[C@@H]([C@@H](C)O)C(=O)N[C@@H](CC(=O)O)C(=O)NCC(=O)N[C@@H](C)C(=O)N[C@@H](CO)C(=O)N[C@@H](CCSC)C(=O)N[C@@H](CCCCN)C(=O)N[C@@H](CC(=O)O)C(=O)N[C@@H](CC(C)C)C(=O)N[C@@H](CO)C(=O)N[C@@H](C)C(=O)N[C@@H](CC(C)C)C(=O)N[C@H](C(=O)O)CSSC[C@@H](C(=O)N[C@@H](C)C(=O)N[C@@H](CO)C(=O)N[C@@H](CO)C(=O)N[C@@H](CCNC(=N)N)C(=O)N[C@@H](Cc2cccc3ccccc23)C(=O)O)NC1=O` (I: H-CGLEYIRTVIYICASS[Agb][1Nal]-OH / II: H-CTDGASMKDLSALC-OH; disulfide I:1-II:1, I:13-II:14), at Relaxin-3 receptor 2 [1], the outcome was inactive. Besides, on Relaxin-3 receptor 2 [1] (read-out: EC50), the EC50 came out at 0.00912 µM. The Ki on Relaxin-3 receptor 2 [2] amounted to 0.00309 µM.
